Measurements: the NIST ThermoML archive (doi:10.1021/acs.jced.5b00662)

Assay: xn = mol fraction of the nth substance listed
Details: 100 kPa, Liquid; for speed of sound: Sing-around technique in a fixed-path interferometer; for mass density: Vibrating tube method

CCOCCOCCOCC [diethylene glycol diethyl ether] + O
Details | mass density [kg/m3] | speed of sound [m/s]
283.15 K, x1 = 0.97 | 918.572 | 1305.3
283.15 K, x1 = 0.9742 | 918.371 | 1304.9
283.15 K, x1 = 0.9778 | 918.271 | 1303.9
283.15 K, x1 = 0.9836 | 917.783 | 1303.6
283.15 K, x1 = 0.9875 | 917.643 | 1304.4
283.15 K, x1 = 0.9911 | 917.567 | 1304.1
288.15 K, x1 = 0.97 | 913.742 | 1284.9
288.15 K, x1 = 0.9742 | 913.543 | 1284.6
288.15 K, x1 = 0.9778 | 913.443 | 1283.6
288.15 K, x1 = 0.9836 | 912.955 | 1283.3
288.15 K, x1 = 0.9875 | 912.82 | 1284
288.15 K, x1 = 0.9911 | 912.74 | 1284
293.15 K, x1 = 0.97 | 908.91 | 1264.8
293.15 K, x1 = 0.9742 | 908.705 | 1264.4
293.15 K, x1 = 0.9778 | 908.61 | 1263.6
293.15 K, x1 = 0.9836 | 908.126 | 1263.2
293.15 K, x1 = 0.9875 | 907.993 | 1263.9
293.15 K, x1 = 0.9911 | 907.914 | 1263.8
298.15 K, x1 = 0.97 | 904.074 | 1244.9
298.15 K, x1 = 0.9742 | 903.873 | 1244.6
298.15 K, x1 = 0.9778 | 903.775 | 1243.7
298.15 K, x1 = 0.9836 | 903.3 | 1243.4
298.15 K, x1 = 0.9875 | 903.166 | 1244.1
298.15 K, x1 = 0.9911 | 903.09 | 1244
303.15 K, x1 = 0.97 | 899.235 | 1225.2
303.15 K, x1 = 0.9742 | 899.035 | 1224.9
303.15 K, x1 = 0.9778 | 898.937 | 1224
303.15 K, x1 = 0.9836 | 898.467 | 1223.6
303.15 K, x1 = 0.9875 | 898.334 | 1224.4
303.15 K, x1 = 0.9911 | 898.256 | 1224.2
308.15 K, x1 = 0.97 | 894.389 | 1205.6
308.15 K, x1 = 0.9742 | 894.189 | 1205.3
308.15 K, x1 = 0.9778 | 894.092 | 1204.6
308.15 K, x1 = 0.9836 | 893.628 | 1204.1
308.15 K, x1 = 0.9875 | 893.496 | 1204.7
308.15 K, x1 = 0.9911 | 893.419 | 1204.6
313.15 K, x1 = 0.97 | 889.537 | 1186.4
313.15 K, x1 = 0.9742 | 889.339 | 1186
313.15 K, x1 = 0.9778 | 889.241 | 1185.3
313.15 K, x1 = 0.9836 | 888.783 | 1184.7
313.15 K, x1 = 0.9875 | 888.652 | 1184.7
313.15 K, x1 = 0.9911 | 888.577 | 1185.3
323.15 K, x1 = 0.97 | 879.812 | 1148.2
323.15 K, x1 = 0.9742 | 879.619 | 1147.7
323.15 K, x1 = 0.9778 | 879.518 | 1147.3
323.15 K, x1 = 0.9836 | 879.074 | 1146.7
323.15 K, x1 = 0.9875 | 878.945 | 1146.3
323.15 K, x1 = 0.9911 | 878.873 | 1146.2
333.15 K, x1 = 0.97 | 870.056 | 1111
333.15 K, x1 = 0.9742 | 869.867 | 1110.4
333.15 K, x1 = 0.9778 | 869.76 | 1110
333.15 K, x1 = 0.9836 | 869.332 | 1109.5
333.15 K, x1 = 0.9875 | 869.203 | 1109.1
333.15 K, x1 = 0.9911 | 869.134 | 1108.9
343.15 K, x1 = 0.97 | 860.264 | 1074.5
343.15 K, x1 = 0.9742 | 860.076 | 1074
343.15 K, x1 = 0.9778 | 859.966 | 1073.7
343.15 K, x1 = 0.9836 | 859.55 | 1073.1
343.15 K, x1 = 0.9875 | 859.411 | 1072.6
343.15 K, x1 = 0.9911 | 859.346 | 1072.7

OCCOCCO [diethylene glycol] + O
Details | mass density, x1 = 0.907 [kg/m3] | mass density, x1 = 0.9589 [kg/m3] | mass density, x1 = 0.9698 [kg/m3] | mass density, x1 = 0.99 [kg/m3] | mass density, x1 = 0.9901 [kg/m3] | speed of sound, x1 = 0.907 [m/s] | speed of sound, x1 = 0.9589 [m/s] | speed of sound, x1 = 0.9698 [m/s] | speed of sound, x1 = 0.99 [m/s] | speed of sound, x1 = 0.9901 [m/s]
283.15 K | 1123.13 | 1123.27 | 1123.27 | 1123.33 | 1123.33 | 1620.3 | 1617.8 | 1617.4 | 1616.4 | 1616.5
288.15 K | 1119.58 | 1119.71 | 1119.72 | 1119.77 | 1119.77 | 1608 | 1605.5 | 1605.2 | 1604.1 | 1604.2
293.15 K | 1116.02 | 1116.15 | 1116.16 | 1116.21 | 1116.21 | 1595.9 | 1593.3 | 1593 | 1591.9 | 1592
298.15 K | 1112.45 | 1112.59 | 1112.59 | 1112.65 | 1112.65 | 1583.8 | 1581 | 1580.8 | 1579.6 | 1579.8
303.15 K | 1108.88 | 1109.02 | 1109.03 | 1109.08 | 1109.08 | 1571.7 | 1569 | 1568.6 | 1567.5 | 1567.4
308.15 K | 1105.3 | 1105.43 | 1105.44 | 1105.5 | 1105.5 | 1559.6 | 1557 | 1556.6 | 1555.4 | 1555.4
313.15 K | 1101.69 | 1101.83 | 1101.84 | 1101.9 | 1101.9 | 1547.5 | 1545 | 1544.6 | 1543.4 | 1543.3
323.15 K | 1094.45 | 1094.6 | 1094.6 | 1094.67 | 1094.67 | 1523.4 | 1520.9 | 1520.5 | 1519.3 | 1519.2
333.15 K | 1087.12 | 1087.28 | 1087.29 | 1087.36 | 1087.36 | 1499 | 1496.6 | 1496.2 | 1495.1 | 1494.9
343.15 K | 1079.71 | 1079.88 | 1079.9 | 1079.97 | 1079.97 | 1474.6 | 1472.2 | 1471.8 | 1470.8 | 1470.5
